In one assay the target is T1, Human recombinant HDAC1 (Homo sapiens, UniProt Q13547).
T1 construct: purchased Enzo Life Science Co. (named for the kit; assigned to the enzyme from the BML- catalogue prefix) BML-SE456
The experiment in a line: HDAC enzyme activity test, HDAC1. The assay is classed as biochemical. The conditions noted are these: Table 12; read-out: Inhibition ability (IC50) HDAC1. Here is the method: (§1) Then, 0.3 μg of enzyme and 10 μM of substrate per well were added, reacted at 30° C. for 60 minutes. Thereto, Fluor de Lys® Developer II (BML-KI176) was added and reacted for 30 minutes. […] From the data, the respective IC50 were calculated by GraphPad Prism 4.0 program.

The target in a further assay is T2, human recombinant HDAC6 (Homo sapiens, UniProt Q9UBN7).
T2 construct: purchased Calibiochem Co. (so in the source) 382180
T2 sequence (Q9UBN7 1-1215): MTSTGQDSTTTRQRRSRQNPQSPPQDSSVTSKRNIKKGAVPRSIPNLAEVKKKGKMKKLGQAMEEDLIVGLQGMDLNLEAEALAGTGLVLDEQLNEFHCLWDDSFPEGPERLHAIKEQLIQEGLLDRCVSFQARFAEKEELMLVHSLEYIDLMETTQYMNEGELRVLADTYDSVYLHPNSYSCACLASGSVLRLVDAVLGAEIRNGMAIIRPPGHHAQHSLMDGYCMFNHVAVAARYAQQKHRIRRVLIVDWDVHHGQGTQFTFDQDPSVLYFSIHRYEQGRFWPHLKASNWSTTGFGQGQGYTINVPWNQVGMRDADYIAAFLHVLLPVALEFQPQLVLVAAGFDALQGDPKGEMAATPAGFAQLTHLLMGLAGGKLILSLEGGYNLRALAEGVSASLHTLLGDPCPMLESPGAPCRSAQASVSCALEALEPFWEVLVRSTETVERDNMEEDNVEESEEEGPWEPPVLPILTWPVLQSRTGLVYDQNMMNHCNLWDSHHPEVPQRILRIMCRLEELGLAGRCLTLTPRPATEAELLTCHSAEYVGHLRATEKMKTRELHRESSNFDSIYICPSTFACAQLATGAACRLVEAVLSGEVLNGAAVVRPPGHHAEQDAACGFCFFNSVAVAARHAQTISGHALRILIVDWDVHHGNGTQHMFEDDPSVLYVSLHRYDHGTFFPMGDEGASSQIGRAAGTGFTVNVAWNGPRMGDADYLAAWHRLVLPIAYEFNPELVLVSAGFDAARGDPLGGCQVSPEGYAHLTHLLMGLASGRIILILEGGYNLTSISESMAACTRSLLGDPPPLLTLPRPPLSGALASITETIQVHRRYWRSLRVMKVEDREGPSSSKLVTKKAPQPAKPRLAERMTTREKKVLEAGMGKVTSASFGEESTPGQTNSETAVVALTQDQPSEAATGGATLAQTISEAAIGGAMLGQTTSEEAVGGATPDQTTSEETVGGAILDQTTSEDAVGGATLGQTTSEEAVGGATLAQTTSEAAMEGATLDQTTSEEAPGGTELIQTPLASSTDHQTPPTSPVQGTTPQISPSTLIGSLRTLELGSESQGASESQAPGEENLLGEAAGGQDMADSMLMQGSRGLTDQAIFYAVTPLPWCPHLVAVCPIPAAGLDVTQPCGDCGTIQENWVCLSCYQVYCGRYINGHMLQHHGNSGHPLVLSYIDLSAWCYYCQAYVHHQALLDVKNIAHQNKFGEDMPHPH
The experiment in a line: HDAC enzyme activity test, HDAC6. The class given is biochemical. The conditions noted are these: Table 12; for Selectivity for HDAC6, HD1/HD6: ratio HDAC1 IC50 / HDAC6 IC50; for IC50: read-out: Inhibition ability (IC50) HDAC6. Here is the method: as §1

T1 sequence (Q13547 whole entry): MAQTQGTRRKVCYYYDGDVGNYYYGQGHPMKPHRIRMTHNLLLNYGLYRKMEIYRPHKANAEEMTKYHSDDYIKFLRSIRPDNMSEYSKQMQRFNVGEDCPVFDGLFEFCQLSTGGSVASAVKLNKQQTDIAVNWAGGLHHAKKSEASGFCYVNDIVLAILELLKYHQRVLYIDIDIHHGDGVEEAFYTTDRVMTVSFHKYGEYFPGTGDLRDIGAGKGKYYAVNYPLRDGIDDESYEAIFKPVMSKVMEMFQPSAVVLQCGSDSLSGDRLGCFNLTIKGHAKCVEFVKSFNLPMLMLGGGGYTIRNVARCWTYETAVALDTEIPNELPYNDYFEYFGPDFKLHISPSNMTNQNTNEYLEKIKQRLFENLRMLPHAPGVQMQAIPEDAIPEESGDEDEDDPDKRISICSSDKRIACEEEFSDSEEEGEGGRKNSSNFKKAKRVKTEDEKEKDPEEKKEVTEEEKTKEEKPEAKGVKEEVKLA

What is called IC50 is the concentration that inhibits the measured activity by half. For `CCCCN1CCN(CC2CCc3c(c4cc(F)ccc4n3Cc3ccc(C(=O)NO)cc3)C2=O)CC1` (stereo not drawn) [Compound 190, 4-((3-((4-butylpiperazin-1-yl)methyl)-6-fluoro-4-oxo-1,2,3,4-tetrahydrocarbazol-9-yl)methyl)-N-hydroxybenzamide], at Human recombinant HDAC1, the IC50 is 2250 nM. For the same compound, at human recombinant HDAC6, the “Selectivity for HDAC6, HD1/HD6” value is listed as 385.1 and the IC50 is 5.8 nM.
For `CC(C)(O)CN1CCN(CC2CCc3c(c4cc(F)ccc4n3Cc3ccc(C(=O)NO)cc3)C2=O)CC1` (stereo not drawn) [Compound 191, 4-((6-fluoro-3-((4-(2-hydroxy-2-methylpropyl)piperazin-1-yl)methyl)-4-oxo-1,2,3,4-tetrahydrocarbazol-9-yl)methyl)-N-hydroxybenzamide], in that order: 8280 nM, 1115.6 and 7.4 nM.
The matching figures for `Cc1nccn1CC1C(=O)c2c(n(Cc3ccc(C(=O)NO)cc3)c3ccc(F)cc23)CC1(C)C` (stereo not drawn) [Compound 192, 4-((6-fluoro-2,2-dimethyl-3-((2-methyl-1H-imidazol-1-yl)methyl)-4-oxo-1,2,3,4-tetrahydrocarbazol-9-yl)methyl)-N-hydroxybenzamide]: 4610 nM, 2546.4 and 1.8 nM.
The matching figures for `O=C(CCCCCn1c2c(c3ccccc31)C(=O)C(CN1CCOCC1)CC2)NO` (stereo not drawn) [Compound 193, N-hydroxy-6-(3-(morpholinomethyl)-4-oxo-1,2,3,4-tetrahydrocarbazol-9-yl)hexanamide]: 3500 nM, 464.3 and 7.5 nM.
Regarding `Cc1nccn1CC1CCc2c(c3ccccc3n2CCCCCC(=O)NO)C1=O` (stereo not drawn) [Compound 194, N-hydroxy-6-(3-((2-methyl-1H-imidazol-1-yl)methyl)-4-oxo-1,2,3,4-tetrahydrocarbazol-9-yl)hexanamide], on Human recombinant HDAC1, the IC50 was found to be 3080 nM. Besides, on human recombinant HDAC6, the “Selectivity for HDAC6, HD1/HD6” value came out at 131.3 and the IC50 is 23.5 nM.
The matching figures for `O=C(CCCCCn1c2c(c3ccccc31)C(=O)C(CN1CCC(F)(F)C1)CC2)NO` (stereo not drawn) [Compound 204, 6-(3-((3,3-difluoropyrrolidin-1-yl)methyl)-4-oxo-1,2,3,4-tetrahydrocarbazol-9-yl)-N-hydroxyhexanamide]: 1950 nM, 40 and 48.7 nM.
In the case of `CN1CCN(CC2CCc3c(c4ccccc4n3CCCCCC(=O)NO)C2=O)CC1` (stereo not drawn) [Compound 205, N-hydroxy-6-(3-((4-methylpiperazin-1-yl)methyl)-4-oxo-1,2,3,4-tetrahydrocarbazol-9-yl)hexanamide], on Human recombinant HDAC1, the IC50 came out at 3170 nM. In addition, on human recombinant HDAC6, the “Selectivity for HDAC6, HD1/HD6” value was 69 and the IC50 was 46 nM.
For `CCN1CCN(CC2CCc3c(c4ccccc4n3CCCCCC(=O)NO)C2=O)CC1` (stereo not drawn) [Compound 206, 6-(3-((4-ethylpiperazin-1-yl)methyl)-4-oxo-1,2,3,4-tetrahydrocarbazol-9-yl)-N-hydroxyhexanamide], in that order: 1200 nM, 43.5 and 27.5 nM.
The matching figures for `CC1(C)Cc2c(c3cc(F)ccc3n2Cc2ccc(C(=O)NO)cc2)C(=O)C1CN1CCOCC1` (stereo not drawn) [Compound 207, 4-((6-fluoro-2,2-dimethyl-3-(morpholinomethyl)-4-oxo-1,2,3,4-tetrahydrocarbazol-9-yl)methyl)-N-hydroxybenzamide]: 1820 nM, 41.5 and 43.9 nM.
Turning to `CCCCN1CCN(CC2CCc3c(c4ccccc4n3CCCCCC(=O)NO)C2=O)CC1` (stereo not drawn) [Compound 208, 6-(3-((4-butylpiperazin-1-yl)methyl)-4-oxo-1,2,3,4-tetrahydrocarbazol-9-yl)-N-hydroxyhexanamide], the concentration for half-maximal inhibition (IC50) on Human recombinant HDAC1 is 284 nM. Also, at human recombinant HDAC6, the “Selectivity for HDAC6, HD1/HD6” value is 152.8 and the IC50 was determined as 1.9 nM.
For `CN1CCN(CC2C(=O)c3c(n(Cc4ccc(C(=O)NO)cc4)c4ccc(F)cc34)CC2(C)C)CC1` (stereo not drawn) [Compound 209, 4-((6-fluoro-2,2-dimethyl-3-((4-methylpiperazin-1-yl)methyl)-4-oxo-1,2,3,4-tetrahydrocarbazol-9-yl)methyl)-N-hydroxybenzamide], the IC50 on Human recombinant HDAC1 is 365 nM. Besides, at human recombinant HDAC6, the “Selectivity for HDAC6, HD1/HD6” value amounted to 148.8 and the half-maximal inhibitory concentration (IC50) was 2.5 nM.
For `Cc1c2c(n(Cc3ccc(C(=O)NO)cc3)c1C)CCCC2=O` [Compound 220, 4-((2,3-dimethyl-4-oxo-4,5,6,7-tetrahydroindol-1-yl)methyl)-N-hydroxybenzamide], in that order: 2820 nM, 643.1 and 4.39 nM.
For `O=C(NO)c1ccc(Cn2c3c(c4ccccc42)C(=O)NCC3)cc1` [Compound 228, N-hydroxy-4-((1-oxo-1,2,3,4-tetrahydropyrido[4,3-b]indol-5-yl)methyl)benzamide], in that order: 3530 nM, 208.3 and 16.9 nM.
For `Cc1cn(Cc2ccc(C(=O)NO)cc2)c2c1C(=O)NCC2` [Compound 232, N-hydroxy-4-((3-methyl-4-oxo-4,5,6,7-tetrahydropyrrolo[3,2-c]pyridin-1-yl)methyl)benzamide], in that order: 4840 nM, 107.4 and 45 nM.
Regarding `Cc1c2c(n(CCCCCC(=O)NO)c1C)CCCC2=O` [Compound 235, 6-(2,3-dimethyl-4-oxo-4,5,6,7-tetrahydroindol-1-yl)-N-hydroxyhexanamide], the IC50 on Human recombinant HDAC1 was determined as 1310 nM. In addition, at human recombinant HDAC6, the “Selectivity for HDAC6, HD1/HD6” value is listed as 34.9 and the IC50 came out at 37.5 nM.
For `Cc1c2c(n(Cc3ccc(C(=O)NO)cc3)c1C)CC(C)(C)CC2=O` [Compound 236, N-hydroxy-4-((2,3,6,6-tetramethyl-4-oxo-4,5,6,7-tetrahydro-1H-indol-1-yl)methyl)benzamide], the IC50 at Human recombinant HDAC1 turned out to be 5110 nM. For the same compound, on human recombinant HDAC6, the “Selectivity for HDAC6, HD1/HD6” value is 479.4 and the IC50 came to 10.7 nM.
The matching figures for `Cc1cn(Cc2ccc(C(=O)NO)cc2)c2c1C(=O)N(CCN1CCOCC1)CC2` [Compound 250, N-hydroxy-4-((3-methyl-5-(2-morpholinoethyl)-4-oxo-4,5,6,7-tetrahydropyrrolo[3,2-c]pyridin-1-yl)methyl)benzamide]: 2720 nM, 20.5 and 133 nM.
For `CN1CCN(CCN2CCc3c(c4ccccc4n3Cc3ccc(C(=O)NO)cc3)C2=O)CC1` [Compound 251, N-hydroxy-4-((2-(2-(4-methylpiperazin-1-yl)ethyl)-1-oxo-1,2,3,4-tetrahydropyrido[4,3-b]indol-5-yl)methyl)benzamide], in that order: 1450 nM, 820.3 and 1.77 nM.
For `O=C(NO)c1ccc(Cn2c3c(c4cc(F)ccc42)C(=O)N(CCN2CCOCC2)CC3)cc1` [Compound 266], in that order: 2910 nM, 2851 and 1.02 nM.
On to `O=C(NO)c1ccc(Cn2c3c(c4ccccc42)C(=O)N(CCN2CCC[C@H]2CO)CC3)cc1` [Compound 267, (S)—N-hydroxy-4-((2-(2-(2-(hydroxymethyl)pyrrolidin-1-yl)ethyl)-1-oxo-1,2,3,4-tetrahydropyrido[4,3-b]indol-5-yl)methyl)benzamide], for which the IC50 on Human recombinant HDAC1 amounted to 2270 nM. Besides, at human recombinant HDAC6, the “Selectivity for HDAC6, HD1/HD6” value is listed as 678.8 and the IC50 is 3.35 nM.
For `Cc1c2c(n(Cc3ccc(C(=O)NO)cc3)c1C)CCC(CN1CCOCC1)C2=O` (stereo not drawn) [Compound 268, 4-((2,3-dimethyl-5-(morpholinomethyl)-4-oxo-4,5,6,7-tetrahydroindol-1-yl)methyl)-N-hydroxybenzamide], in that order: 6050 nM, 448.4 and 13.5 nM.

(Values after patent US20140315889A1, “HYDROXAMATE DERIVATIVES FOR HDAC INHIBITOR, AND THE PHARMACEUTICAL COMPOSITION COMPRISING THEREOF” (CHONG KUN DANG PHARMACEUTICAL CORP., priority 2011, published 2014).)
